Values quoted from earlier work as cited in patent publication US20070293479A1, “OLANZAPINE PHARMACEUTICAL COMPOSITION” (priority 2006, published 2007).

Conditions: free base, at pH 6.8

For `Cc1cc2c(s1)Nc1ccccc1N=C2N1CCN(C)CC1` [Olanzapine], the solubility is given as “about 0.02 mg/ml”.
